Results taken from patent US20070010444A1, “Novel mediator of neurotransmitter and psychostimulant responses” (The Regents of the University of California, priority 2005, published 2007).
Entries after “also recorded” stand apart in the source; their conditions may differ. Structures can show the parent of a compound that is named as a salt.

Experiments:
C. elegans [1] = experiment: Growth of worms on agar plates containing amphetamine
C. elegans [2] = experiment: Chronic effect of amphetamine on pharyngeal pumping (plates, 20 hours); assay type: in vivo, Caenorhabditis elegans; conditions: 5 mM amphetamine plates
C. elegans [3] = experiment: Acute amphetamine assay of pharyngeal pumping (90 minutes in M9 buffer); assay type: in vivo, Caenorhabditis elegans
C. elegans [4] = experiment: Muscimol effect on rate of pharyngeal contractions (plates with food); assay type: in vivo, Caenorhabditis elegans; conditions: N2 and eg814, plates with 0, 0.1 and 1 mM muscimol, 20 and 45 minutes

SMILES	gravid adults (C. elegans [1]; eg814 mutant, 5 mM amph, plated at first larval stage, after 5 days) [%]	growth rates (C. elegans [1]; eg814 mutant, 5 mM amphetamine)	growth of worms (C. elegans [1]; long-term exposure, millimolar levels of amphetamine in agar plates)	animals reaching adulthood (C. elegans [1]; wild-type (N2), 5 mM amphetamine plates, after 5 days)	rate of pharyngeal contractions (C. elegans [2]; N2, first day adults)	rate of pharyngeal contractions (pumping) (C. elegans [2]; eg814 mutant, first day adults)	pharyngeal contractions, acute effect (C. elegans [3]; N2, 90 minutes in solution of 0, 5 and 10 mM amph)	pharyngeal contractions, acute effect (C. elegans [3]; eg814 mutant, 90 minutes in solution of 0, 5 and 10 mM amph)	inhibition of pumping (C. elegans [4])
C[C@H](N)Cc1ccccc1 [amphetamine, d-amphetamine sulfate]	~100	unaffected growth rates	dramatically suppressed the growth of worms	no wild-type animals are adults	greatly reduced rate of pharyngeal contractions	sustained resistance to the inhibition of pumping	inhibits pharyngeal contractions of N2 worms in a dose-dependent manner	exhibits resistance to acute amphetamine	
NCc1cc(=O)[nH]o1 [muscimol]									exhibited similar inhibition of pumping after both 20 and 45 minutes; also recorded: inhibited pumping in both N2 and eg814 worms with a very similar dose response
